Data from US9937151B2, “Carbapenem antibacterials with gram-negative activity” (priority 2010, dated 2018).
In brackets after ≈: the same amount, converted by molar mass.

System: G(−) bacterial strains
Assay: Dilution antimicrobial susceptibility tests (MIC, NCCLS agar dilution / broth dilution)
Format: cell-based, Gram-negative organisms
Settings: unit assumed
How it was run: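 Agar dilution on Mueller-Hinton agar at 10^4 CFU/spot and broth dilution at 5×10^5 CFU/well, per NCCLS M7-A5. Streptococci tested on Mueller-Hinton agar with 5% sheep blood. MIC taken as minimum inhibitory concentration; ATCC control strains run alongside.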

[1] = strain #1 Acinetobacter calcoaceticus
[2] = strain #2 Acinetobacter baumannii, Cf-R, Ci-R
[3] = strain #3 Acinetobacter baumannii, Cf-R, Ci-R, Mp-I
[4] = strain #4 Acinetobacter baumannii, Cf-R, Imp-I, CBPase
[5] = strain #7 Enterobacter aerogenes
[6] = strain #8 Enterobacter cloacae, Cf-R, B+
[7] = strain #9 Enterobacter cloacae, Cf-R
[8] = strain #10 Escherichia coli, Ci-R
[9] = strain #11 Escherichia coli, Ci-R, AmpC
[10] = strain #15 Klebsiella pneumoniae
[11] = strain #16 Moraxella catarrhalis
[12] = strain #21 Providencia rettgeri
[13] = strain #22 Salmonella typhimurium
[14] = strain #25 Shigella dysenteriae
[15] = strain #28 Stenotrophomonas maltophilia
[16] = strain #29 Pseudomonas aeruginosa
[17] = strain #30 Pseudomonas aeruginosa
[18] = strain #31 Pseudomonas aeruginosa, Ofx-R
[19] = strain #32 Pseudomonas aeruginosa, Cf-R
[20] = strain #33 Pseudomonas aeruginosa, Ci-R
[21] = strain #34 Pseudomonas aeruginosa, Gen-R
[22] = strain #35 Pseudomonas aeruginosa, Ip-R
[23] = strain #36 Pseudomonas aeruginosa, Cf-R, Ci-R, Mp-R

Compound | MIC [1] | MIC [2] | MIC [3] | MIC [4] | MIC (strain #5 Citrobacter diversus) | MIC (strain #6 Citrobacter freundii) | MIC [5] | MIC [6] | MIC [7] | MIC [8] | MIC [9] | MIC (strain #12 Escherichia coli) | MIC (strain #13 Escherichia coli) | MIC (strain #14 Klebsiella oxytoca) | MIC [10] | MIC [11] | MIC (strain #17 Morganella Morganii) | MIC (strain #18 Morganella Morganii) | MIC (strain #19 Proteus vulgaris) | MIC (strain #20 Proteus mirabilis) | other results
CC(=O)NC(=N)N[C@H]1CCN(CC2=C(C(=O)O)N3C(=O)C([C@@H](C)O)C3[C@H]2C)C1 (stereo partly shown) [Compound 111] | 1 µg/mL (≈ 2.54 µM) | 4 µg/mL (≈ 10.2 µM) | 4 µg/mL (≈ 10.2 µM) | 4 µg/mL (≈ 10.2 µM) | 0.5 µg/mL (≈ 1.27 µM) | 0.5 µg/mL (≈ 1.27 µM) | 2 µg/mL (≈ 5.08 µM) | 1 µg/mL (≈ 2.54 µM) | 1 µg/mL (≈ 2.54 µM) | 0.5 µg/mL (≈ 1.27 µM) | 0.5 µg/mL (≈ 1.27 µM) | 0.5 µg/mL (≈ 1.27 µM) | 0.5 µg/mL (≈ 1.27 µM) | 1 µg/mL (≈ 2.54 µM) | 1 µg/mL (≈ 2.54 µM) | ≤ 0.008 µg/mL | 4 µg/mL (≈ 10.2 µM) | 2 µg/mL (≈ 5.08 µM) | 2 µg/mL (≈ 5.08 µM) | 0.5 µg/mL (≈ 1.27 µM) | MIC [12]: 2 µg/mL (≈ 5.08 µM); MIC [13]: 0.5 µg/mL (≈ 1.27 µM); MIC (strain #23 Serratia marcescens): 1 µg/mL (≈ 2.54 µM); MIC (strain #24 Serratia marcescens): 2 µg/mL (≈ 5.08 µM); MIC [14]: 0.5 µg/mL (≈ 1.27 µM); MIC (strain #26 Shigella sonnei): 0.5 µg/mL (≈ 1.27 µM); MIC (strain #27 Shigella flexneri): 0.5 µg/mL (≈ 1.27 µM); MIC [15]: 0.5 µg/mL (≈ 1.27 µM); MIC [16]: 4 µg/mL (≈ 10.2 µM); MIC [17]: 4 µg/mL (≈ 10.2 µM); MIC [18]: 1 µg/mL (≈ 2.54 µM); MIC [19]: 4 µg/mL (≈ 10.2 µM); MIC [20]: 8 µg/mL (≈ 20.3 µM); MIC [21]: 4 µg/mL (≈ 10.2 µM); MIC [22]: 8 µg/mL (≈ 20.3 µM); MIC [23]: > 32 µg/mL
C[C@@H](O)C1C(=O)N2C(C(=O)O)=C(CN3CC[C@H](NS(N)(=O)=O)C3)[C@H](C)C12 (stereo partly shown) [Compound 72] | 1 µg/mL (≈ 2.57 µM) | 2 µg/mL (≈ 5.15 µM) | 4 µg/mL (≈ 10.3 µM) | 4 µg/mL (≈ 10.3 µM) | 0.5 µg/mL (≈ 1.29 µM) | 0.5 µg/mL (≈ 1.29 µM) | 1 µg/mL (≈ 2.57 µM) | 0.25 µg/mL (≈ 0.644 µM) | 1 µg/mL (≈ 2.57 µM) | 0.25 µg/mL (≈ 0.644 µM) | 0.25 µg/mL (≈ 0.644 µM) | 0.25 µg/mL (≈ 0.644 µM) | 0.5 µg/mL (≈ 1.29 µM) | 1 µg/mL (≈ 2.57 µM) | 0.5 µg/mL (≈ 1.29 µM) | 0.016 µg/mL (≈ 0.0412 µM) | 4 µg/mL (≈ 10.3 µM) | 4 µg/mL (≈ 10.3 µM) | 2 µg/mL (≈ 5.15 µM) | 0.5 µg/mL (≈ 1.29 µM) | MIC [12]: 2 µg/mL (≈ 5.15 µM); MIC [13]: 0.5 µg/mL (≈ 1.29 µM); MIC (strain #23 Serratia marcescens): 1 µg/mL (≈ 2.57 µM); MIC (strain #24 Serratia marcescens): 1 µg/mL (≈ 2.57 µM); MIC [14]: 0.5 µg/mL (≈ 1.29 µM); MIC (strain #26 Shigella sonnei): 0.5 µg/mL (≈ 1.29 µM); MIC (strain #27 Shigella flexneri): 0.25 µg/mL (≈ 0.644 µM); MIC [15]: 0.5 µg/mL (≈ 1.29 µM); MIC [16]: 8 µg/mL (≈ 20.6 µM); MIC [17]: 8 µg/mL (≈ 20.6 µM); MIC [18]: 2 µg/mL (≈ 5.15 µM); MIC [19]: 4 µg/mL (≈ 10.3 µM); MIC [20]: 8 µg/mL (≈ 20.6 µM); MIC [21]: 8 µg/mL (≈ 20.6 µM); MIC [22]: 8 µg/mL (≈ 20.6 µM); MIC [23]: 32 µg/mL (≈ 82.4 µM)
C[C@@H](O)C1C(=O)N2C(C(=O)O)=C(CN3CC(N)C3)[C@H](C)C12 (stereo partly shown) [Compound 93] | 1 µg/mL (≈ 3.39 µM) | 2 µg/mL (≈ 6.77 µM) | 8 µg/mL (≈ 27.1 µM) | 2 µg/mL (≈ 6.77 µM) | 0.25 µg/mL (≈ 0.846 µM) | 0.5 µg/mL (≈ 1.69 µM) | 2 µg/mL (≈ 6.77 µM) | 0.25 µg/mL (≈ 0.846 µM) | 0.5 µg/mL (≈ 1.69 µM) | 0.25 µg/mL (≈ 0.846 µM) | 0.25 µg/mL (≈ 0.846 µM) | 0.25 µg/mL (≈ 0.846 µM) | 0.5 µg/mL (≈ 1.69 µM) | 0.5 µg/mL (≈ 1.69 µM) | 0.5 µg/mL (≈ 1.69 µM) | 0.031 µg/mL (≈ 0.105 µM) | 8 µg/mL (≈ 27.1 µM) | 4 µg/mL (≈ 13.5 µM) | 2 µg/mL (≈ 6.77 µM) | 0.5 µg/mL (≈ 1.69 µM) | MIC [12]: 2 µg/mL (≈ 6.77 µM); MIC [13]: 0.5 µg/mL (≈ 1.69 µM); MIC (strain #23 Serratia marcescens): 1 µg/mL (≈ 3.39 µM); MIC (strain #24 Serratia marcescens): 1 µg/mL (≈ 3.39 µM); MIC [14]: 0.5 µg/mL (≈ 1.69 µM); MIC (strain #26 Shigella sonnei): 0.5 µg/mL (≈ 1.69 µM); MIC (strain #27 Shigella flexneri): 0.25 µg/mL (≈ 0.846 µM); MIC [15]: 0.5 µg/mL (≈ 1.69 µM); MIC [16]: 4 µg/mL (≈ 13.5 µM); MIC [17]: 4 µg/mL (≈ 13.5 µM); MIC [18]: 4 µg/mL (≈ 13.5 µM); MIC [19]: 4 µg/mL (≈ 13.5 µM); MIC [20]: 8 µg/mL (≈ 27.1 µM); MIC [21]: 8 µg/mL (≈ 27.1 µM); MIC [22]: 16 µg/mL (≈ 54.2 µM); MIC [23]: 16 µg/mL (≈ 54.2 µM)
C[C@@H](O)C1C(=O)N2C(C(=O)O)=C(CN3CC[C@H](C(=O)NC(=N)N)C3)[C@H](C)C12 (stereo partly shown) [Compound 143] | 8 µg/mL (≈ 21.1 µM) | 32 µg/mL (≈ 84.3 µM) | 32 µg/mL (≈ 84.3 µM) | > 32 µg/mL | 0.5 µg/mL (≈ 1.32 µM) | 1 µg/mL (≈ 2.64 µM) | 4 µg/mL (≈ 10.5 µM) | 0.5 µg/mL (≈ 1.32 µM) | 1 µg/mL (≈ 2.64 µM) | 0.5 µg/mL (≈ 1.32 µM) | 0.5 µg/mL (≈ 1.32 µM) | 0.5 µg/mL (≈ 1.32 µM) | 0.5 µg/mL (≈ 1.32 µM) | 1 µg/mL (≈ 2.64 µM) | 2 µg/mL (≈ 5.27 µM) | 0.063 µg/mL (≈ 0.166 µM) | 16 µg/mL (≈ 42.2 µM) | 8 µg/mL (≈ 21.1 µM) | 8 µg/mL (≈ 21.1 µM) | 1 µg/mL (≈ 2.64 µM) | MIC [12]: 2 µg/mL (≈ 5.27 µM); MIC [13]: 0.5 µg/mL (≈ 1.32 µM); MIC (strain #23 Serratia marcescens): 1 µg/mL (≈ 2.64 µM); MIC (strain #24 Serratia marcescens): 2 µg/mL (≈ 5.27 µM); MIC [14]: 1 µg/mL (≈ 2.64 µM); MIC (strain #26 Shigella sonnei): 1 µg/mL (≈ 2.64 µM); MIC (strain #27 Shigella flexneri): 0.5 µg/mL (≈ 1.32 µM); MIC [15]: 4 µg/mL (≈ 10.5 µM)
C[C@@H](O)C1C(=O)N2C(C(=O)O)=C(CN3CC(NC(=N)N)C3)[C@H](C)C12 (stereo partly shown) [Compound 89] | 0.13 µg/mL (≈ 0.385 µM) | 1 µg/mL (≈ 2.96 µM) | 1 µg/mL (≈ 2.96 µM) | 0.5 µg/mL (≈ 1.48 µM) | 0.13 µg/mL (≈ 0.385 µM) | 0.25 µg/mL (≈ 0.741 µM) | 1 µg/mL (≈ 2.96 µM) | 0.13 µg/mL (≈ 0.385 µM) | 0.25 µg/mL (≈ 0.741 µM) | 0.13 µg/mL (≈ 0.385 µM) | 0.13 µg/mL (≈ 0.385 µM) | 0.13 µg/mL (≈ 0.385 µM) | 0.25 µg/mL (≈ 0.741 µM) | 0.5 µg/mL (≈ 1.48 µM) | 0.25 µg/mL (≈ 0.741 µM) | ≤ 0.008 µg/mL | 2 µg/mL (≈ 5.93 µM) | 2 µg/mL (≈ 5.93 µM) | 0.5 µg/mL (≈ 1.48 µM) | 0.25 µg/mL (≈ 0.741 µM) | MIC [12]: 1 µg/mL (≈ 2.96 µM); MIC [13]: 0.25 µg/mL (≈ 0.741 µM); MIC (strain #23 Serratia marcescens): 0.5 µg/mL (≈ 1.48 µM); MIC (strain #24 Serratia marcescens): 0.5 µg/mL (≈ 1.48 µM); MIC [14]: 0.25 µg/mL (≈ 0.741 µM); MIC (strain #26 Shigella sonnei): 0.25 µg/mL (≈ 0.741 µM); MIC (strain #27 Shigella flexneri): 0.13 µg/mL (≈ 0.385 µM); MIC [15]: 0.13 µg/mL (≈ 0.385 µM); MIC [16]: 1 µg/mL (≈ 2.96 µM); MIC [17]: 1 µg/mL (≈ 2.96 µM); MIC [18]: 0.5 µg/mL (≈ 1.48 µM); MIC [19]: 1 µg/mL (≈ 2.96 µM); MIC [20]: 1 µg/mL (≈ 2.96 µM); MIC [21]: 1 µg/mL (≈ 2.96 µM); MIC [22]: 4 µg/mL (≈ 11.9 µM); MIC [23]: 8 µg/mL (≈ 23.7 µM)
